In US11046672B2, “Indolinones compounds and their use in the treatment of fibrotic diseases” (RESPIVERT LIMITED, priority 2015, dated 2021):

Key:
MRC5 cells = assay: Cell viability assay in MRC5 cells (MTT)
PAMPA permeability assay = assay type: in vitro ADME; details: PAMPA; for recovery at 5 hr, 10 μM: pH 7, PAMPA, donor and acceptor compartments; for Papp at 5 h, 10 μM: pH 7, pH 7, 10 μM

Structure (SMILES)	Cell viability at 100 nM (%) (MRC5 cells)	Cell viability at 300 nM (%) (MRC5 cells)	Cell viability at 1000 nM (%) (MRC5 cells)	recovery at 5 hr, 10 μM (PAMPA permeability assay)	Papp at 5 h, 10 μM (PAMPA permeability assay)
CNC(=O)CN1CCN(CCONC(=O)c2ccc(N/C(=C3\C(=O)Nc4cc(C(=O)OC)c(C)cc43)c3ccccc3)cc2)CC1 [Example 73]	82.9%	104%	96.8%		
COC(=O)c1cc2c(cc1C)/C(=C(/Nc1ccc(C(=O)N(C)OCCN3CCN[C@H](C)C3)cc1)c1ccccc1)C(=O)N2 [Example 65]	118.6%	110.3%	70.5%		
COC(=O)c1cc2c(cc1C)/C(=C(/Nc1ccc(C(=O)NOCCN(C)C)cc1)c1ccccc1)C(=O)N2 [Example 26]	111.8%	111.4%	88%	40.2%	0.0156 ×10⁻⁶ cm/s
COC(=O)c1cc2c(cc1C)/C(=C(/Nc1ccc(C(=O)NOCCN3CCN(C)CC3)c(C)c1)c1ccccc1)C(=O)N2 [Example 28]	110.2%	117%	104.8%	69%	0.00407 ×10⁻⁶ cm/s
COC(=O)c1cc2c(cc1C)/C(=C(/Nc1ccc(C(=O)NOCCCN3CCC(OC)CC3)cc1)c1ccccc1)C(=O)N2 [Example 55]	106.7%	111.1%	92.3%	59.1%	0.154 ×10⁻⁶ cm/s
COC(=O)c1cc2c(cc1C)/C(=C(/Nc1ccc(C(=O)N(C)OCCN3CCN[C@@H](C)C3)cc1)c1ccccc1)C(=O)N2 [Example 62]	80.7%	73.8%	−0.2%	72.8%	0.00628 ×10⁻⁶ cm/s
COC(=O)c1cc2c(cc1C)/C(=C(/Nc1ccc(S(=O)(=O)NOCCN(C)C)cc1)c1ccccc1)C(=O)N2 [Example 48]	132.6%	121%	103.5%	67.4%	0.22 ×10⁻⁶ cm/s
